Laboratory results: patent US8859599B2, “Androgen receptor modulating compounds, preparation and uses thereof” (priority 2009, dated 2014)
Where two headings read alike, the source gives them in different places.

Tests used:
LNCaP-AR cells = assay: TUNEL assay of apoptotic cells in LNCaP-AR; assay type: cell-based, human; conditions: LNCaP-AR, 144-h exposure, 20.0 μM, TUNEL
PC-3 = assay: SRB cytotoxicity on PC-3 cells; assay type: cell-based, human; conditions: PC-3 cells (no AR), 144 h exposure
Procedure: (§1) Finally, compounds were also tested on HepG2 cells, originally isolated from a primary hepatoblastoma of a child, purchased from ATCC.
(§2) Sulforhodamine B (SRB) assay was used according to the method by Skehan et al. (JNCI, 1990). Briefly, cells were collected by trypsinization, counted and plated at a density of 5,000 cells/well in 96-well flat-bottomed microtiter plates (100 μl of cell suspension/well). In the chemosensitivity assay, experiments were run in octuplicate, and each experiment was repeated three times. The optical density (OD) of cells was determined at a wavelength of 490 nm by a colorimetric plate reader.
(§3) Growth inhibition and cytocidal effect of drugs were calculated according to the formula reported by Monks et al. (JNCI, 1991): [(ODtreated−ODzero)/(ODcontrol−ODzero)]×100%, when ODtreated is > to ODzero. If ODtreated is above ODzero, treatment has induced a cytostatic effect, whereas if ODtreated is below ODzero, cell killing has occurred. The ODzero depicts the cell number at the moment of drug addition, the ODcontrol reflects the cell number in untreated wells and the ODtreated reflects the cell number in treated wells on the day of the assay. TUNEL Assay
(§4) The authors tested the antitumour activity of the compounds also on PC-3 and DU145 cancer cell lines, representative of hormone-refractory prostate cancer due to AR receptor absence.

DU145 = assay: SRB cytotoxicity on DU145 cells; assay type: cell-based, human; conditions: DU145 cells (no AR), 144 h exposure
Procedure: as §1, §2, §3, §4

LNCaP cells [1] = assay: TUNEL assay of apoptotic cells in LNCaP; assay type: cell-based, human; conditions: 144-h exposure, 20.0 μM
Procedure: Cells were fixed in 1% paraformaldehyde in PBS on ice for 15 min, suspended in ice cold ethanol (70%) and stored overnight at −20° C. Cells were then washed twice in PBS and resuspended in PBS containing 0.1% Triton X-100 for 5 min at 4° C. Thereafter, samples were incubated in 50 μl of solution containing TdT and FITC-conjugated dUTP deoxynucleotides 1:1 (Roche Diagnostic GmbH, Mannheim, Germany) in a humidified atmosphere for 90 min at 37° C. in the dark, washed in PBS, counterstained with propidium iodide (2.5 μg/ml, MP Biomedicals, Verona, Italy) and RNAse (10 Kunits/ml, Sigma Aldrich, Milan, Italy) for 30 min at 4° C. in the dark and analyzed by flow cytometry.
After the end of drug exposures, medium was removed and cells were detached from the flasks by trypsin treatment, washed twice with PBS and stained according to the different methods specified below. Flow cytometric analysis was performed using a FACS Canto flow cytometer (Becton Dickinson, San Diego, Calif.). Data acquisition and analysis were performed using FACSDiva software (Becton Dickinson). Samples were run in triplicate and 10,000 events were collected for each replica. Data were the average of three experiments, with errors under 5%.
The cells, before TUNEL assay, were continuously exposed to the anti-androgen compounds for 144 hours at the concentration of 20.0 μM.

LNCaP cells [2] = assay: Sulforhodamine B (SRB) in vitro chemosensitivity assay on LNCaP cells; assay type: cell-based; conditions: for LC50: read-out: cytocidal effects by 50% (LC50), LNCaP cells, 144 h exposure; for LC50 / cytocidal effects by 50% (LC50): n.r. = not reached
Procedure: as §2, §3
The authors examined the antitumour activity of the compounds for which the synthesis is described above, in the hormone-sensitive prostate cancer cell line LNCaP. (R)-Bicalutamide and the novel compounds were tested at the increasing concentrations of […]. The highest dose used was chosen on the basis of the clinically achievable peak plasma concentration reported in the literature for bicalutamide (Cockshott I D. Clin Pharmacokinet. 2004; 43 (13) 855-78).
After 144-hr exposure time, the cytotoxic effect of the molecules was calculated according to the method of Monks et al. (Monks A, et al., J. Nat. Cancer Inst. 1991; 83: 757-66).

[3] = test system: normal stem cells derived from human peripheral blood stem cells; assay: Colony-forming cell assay (GM-CFU); assay type: cell-based; conditions: highest concentration tested, 14 days incubation
Procedure: The colony-forming cell assay was used as previously described [Motta M R et al., Exp Hematol 1997; 25:1261-1269]. In brief, for each molecule, 5×10^4 cells were plated in duplicate in a complete culture medium (MethoCult H4434, StemCell Technologies, Vancouver, Canada) containing different concentrations (0.2, 2, and 20 μmol/l) of the compound. After 14 days of incubation in a humidified atmosphere of 5% CO2 at the temperature of 37° C., granulocyte macrophage colony-forming unit (GM-CFU) aggregates of more than 50 cells were counted. Control cells were incubated under the same conditions but in drug-free medium.
The authors also evaluated the potential toxicity of some of the novel compounds in normal cells as the ability of the drugs to inhibit clonogenic growth of normal stem cells derived from human peripheral blood stem cells (FIG. 37). The exposure of hematopoietic precursor to the compounds, caused low ((S)-37) or negligible (, (R)-22, (R)-23, (R)-10) toxicity at the highest concentration tested.

HepG2 cells = assay: Cytotoxic activity on hepatoblastoma cell line HepG2; assay type: cell-based, human; conditions: up to highest concentration tested
Procedure: as §1, §2, §3
The authors evaluated in vitro the potential hepato-toxicity of some of the novel compounds on HepG2 cell line, a human hepatoblastoma cell line that retains the specialized function of normal hepatocytes [Knowles B B, et al., Science 1980, 209:497-499; Aden D P, et al., Nature, 1979, 282:615-616].

[4] = target: T1, human androgen receptor (hAR) (Homo sapiens, UniProt P10275); assay: hAR transactivation assay (ARE-luciferase reporter) in Cos-7 cells; assay type: cell-based
T1 construct: The cDNA coding hAR was cloned into the pSG5 expression vector as reported previously; expressed in transfected cells; host or cells: Cos-7 cells transiently transfected with pSG5-hAR
T1 sequence (P10275 1-920): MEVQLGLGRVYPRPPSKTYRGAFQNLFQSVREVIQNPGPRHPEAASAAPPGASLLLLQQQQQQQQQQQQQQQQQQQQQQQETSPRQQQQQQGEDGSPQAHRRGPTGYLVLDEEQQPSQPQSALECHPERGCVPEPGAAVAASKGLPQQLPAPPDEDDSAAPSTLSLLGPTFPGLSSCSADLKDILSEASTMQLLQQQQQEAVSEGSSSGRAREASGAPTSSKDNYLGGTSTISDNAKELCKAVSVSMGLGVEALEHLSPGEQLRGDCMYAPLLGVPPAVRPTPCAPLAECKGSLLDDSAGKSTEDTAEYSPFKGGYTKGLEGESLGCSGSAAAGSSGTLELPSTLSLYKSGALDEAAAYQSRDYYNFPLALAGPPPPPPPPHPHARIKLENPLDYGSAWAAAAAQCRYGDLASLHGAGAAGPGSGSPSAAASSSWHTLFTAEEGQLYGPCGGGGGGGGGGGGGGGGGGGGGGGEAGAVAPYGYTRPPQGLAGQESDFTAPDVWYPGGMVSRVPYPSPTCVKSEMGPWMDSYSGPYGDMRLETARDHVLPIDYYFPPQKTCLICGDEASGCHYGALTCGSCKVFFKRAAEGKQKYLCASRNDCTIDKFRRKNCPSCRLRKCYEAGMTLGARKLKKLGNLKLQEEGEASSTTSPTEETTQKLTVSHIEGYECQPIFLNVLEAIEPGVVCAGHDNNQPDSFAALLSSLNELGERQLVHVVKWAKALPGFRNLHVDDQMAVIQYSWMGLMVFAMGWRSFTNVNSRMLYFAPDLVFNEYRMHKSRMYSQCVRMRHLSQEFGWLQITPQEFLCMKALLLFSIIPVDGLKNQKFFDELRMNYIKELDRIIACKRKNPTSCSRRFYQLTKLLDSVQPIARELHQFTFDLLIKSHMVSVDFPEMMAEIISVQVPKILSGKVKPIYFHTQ
Procedure: The cDNA coding hAR was cloned into the pSG5 expression vector as reported previously [Chang, C. S., et al., Science (1988)240:324-326]. The 3416 construct (ARE-Luc), containing four copies of the wild-type slp-HRE2 (5′-TGGTCAgccAGTTCT-3′) (SEQ ID No. 1) was cloned in the NheI site in pTK-TATA-Luc [Verrijdt, G. et al., J. Biol. Chem. (2000)275:12298-12305].
For androgen-stimulated transcriptional analysis, 32×10^4 Cos-7 cells were plated in phenol red-free DMEM containing 5% charcoal-stripped serum. After 48 h, the cells were transfected by Superfect (Qiagen) with 0.3 μg of 3416-pTK-TATA-Luc construct, together with 1.5 μg of either pSG5-empty plasmid or pSG5-hAR expressing plasmid. After 18 h, transfected cells were stimulated for 24 h with 10 nM of the synthetic androgen, R1881 (from Perkin-Elmer; dissolved in 0.001% ethanol, final concentration), in the absence or presence of the indicated concentrations of synthetic compounds. When indicated, the synthetic compounds were added alone to the cell medium. […] It was dissolved in 0.001% (final concentration) ethanol. Control cells were treated with the vehicle alone. Lysates were prepared and the luciferase activity was measured using a luciferase assay system (Promega). The results were corrected using CH110-expressed beta-galactosidase activity (Amersham Biosciences) and luciferase activity was expressed as fold induction. Results were obtained from two or three different experiments, each performed in duplicate. Mean and SEM are shown.

[5] = Homo sapiens, LNCaP, 144 h, read-out: Growth inhibition (GI50), LNCaP cells, 144 h exposure

| SMILES | Apoptotic cells (%) (LNCaP-AR cells) | cytotoxic properties compared to effects on LNCaP and LNCaP-AR cells (PC-3) | cytotoxic properties compared to effects on LNCaP and LNCaP-AR cells (DU145) | Apoptotic cells (%) (LNCaP cells [1]) | LC50 (LNCaP cells [2]; Homo sapiens, LNCaP, 144 h) [µM] | cytocidal (cell killing) activity (LNCaP cells [2]; LNCaP cells, 144 h exposure) | GI50 (LNCaP cells [2]; read-out: Growth inhibition (GI50), LNCaP cells, 144 h exposure) [µM] | toxicity: inhibition of clonogenic growth of hematopoietic precursors [3] | potential hepato-toxicity (HepG2 cells) | GI50 (LNCaP cells [2]; [5]) [µM] | cytostatic effect: suppression of cell growth (LNCaP cells [2]; LNCaP cells, 144 h, highest concentration tested) | inhibition of androgen-induced transcriptional activation (antagonistic activity) ([4]; cells challenged with 10 nM R1881, compound at 10 μM) | agonistic activity, compound alone ([4]; range between 100 nM-10 μM) | cytocidal effects by 50% (LC50) (LNCaP cells [2]; LNCaP cells, 144 h exposure) | GI50 (LNCaP cells [2]; Homo sapiens, LNCaP cells, 144 h exposure, read-out: Growth inhibition (GI50)) [µM] |
| --- | --- | --- | --- | --- | --- | --- | --- | --- | --- | --- | --- | --- | --- | --- | --- |
| N#Cc1ccc(NC(=O)[C@@](N)(CS(=O)(=O)c2ccc(F)cc2)c2ccccc2)cc1C(F)(F)F [(R)-9] | 83.5 | significant reduction in their cytotoxic proprieties | significant reduction in their cytotoxic proprieties | 93.5 | 15 | cytocidal activity | 1.6 |  |  |  |  |  |  |  |  |
| CC(C)(C)S(=O)(=O)N[C@@](C)(CS(=O)(=O)c1ccc(F)cc1)C(=O)Nc1ccc(C#N)c(C(F)(F)F)c1 [(R)-22, (R)—N-(4-cyano-3-(trifluoromethyl)phenyl)-2-(1,1-dimethylethylsulfonamido)-3-(4-fluorophenylsulfonyl)-2-methylpropanamide] |  |  |  |  | 20 |  |  | negligible | negligible toxicity | 5.8 | suppress completely the cell growth | antagonistic activity | functions as agonist |  |  |
| C[C@](N)(CS(=O)(=O)c1ccc(F)cc1)C(=O)Nc1ccc(C#N)c(C(F)(F)F)c1 [(R)-23, (R)-2-amino-N-(4-cyano-3-(trifluoromethyl)phenyl)-3-(4-fluorophenylsulfonyl)-2-methyl propanamide] |  |  |  |  |  |  |  | negligible | negligible toxicity | 10.6 |  |  |  | n.r. |  |
| C[C@](O)(CS(=O)(=O)c1ccc(F)cc1)C(=O)Nc1ccc(C#N)c(C(F)(F)F)c1 [(R)-Bicalutamide, reference compound] | 1.0 |  |  | 2.1 |  |  |  |  |  |  |  |  |  | n.r. | 1.8 |
| CC(C)(C)S(=O)(=O)N[C@](C)(CS(=O)(=O)c1ccc(F)cc1)C(=O)Nc1ccc(C#N)c(C(F)(F)F)c1 [(S)-22] | 0.0 | significant reduction in their cytotoxic proprieties | significant reduction in their cytotoxic proprieties | 6.2 | 19.8 | cytocidal activity |  |  |  | 7 |  |  |  |  |  |
| Cc1ccc(S(=O)(=O)N[C@](C)(CS(=O)(=O)c2ccc(F)cc2)C(=O)Nc2ccc(C#N)c(C(F)(F)F)c2)cc1 [(S)-26] | 91.6 | significant reduction in their cytotoxic proprieties | significant reduction in their cytotoxic proprieties | 77.5 | 18.3 |  |  |  |  | 6.3 |  |  |  |  |  |
